Test results published in patent publication US8916526B2, “Flavanone derivative” (National University Corporation Okayama University, priority 2009, dated 2014).

How the values were obtained:
[1] = target: T1, DNA gyrase of Escherichia coli (Escherichia coli, UniProt P0AES4+P0AES6); test: DNA gyrase inhibition (supercoiling assay kit), Exp. Ex. 1-2; format: biochemical; conditions: E. coli DNA gyrase supercoiling, relaxed pBR322, 37° C., 30 minutes; read-out: Gyrase inhibitory activity IC50 (converted)
T1 construct: purchased John Innes Enterprises #K0001
T1 sequence (P0AES4 whole entry, one chain of several): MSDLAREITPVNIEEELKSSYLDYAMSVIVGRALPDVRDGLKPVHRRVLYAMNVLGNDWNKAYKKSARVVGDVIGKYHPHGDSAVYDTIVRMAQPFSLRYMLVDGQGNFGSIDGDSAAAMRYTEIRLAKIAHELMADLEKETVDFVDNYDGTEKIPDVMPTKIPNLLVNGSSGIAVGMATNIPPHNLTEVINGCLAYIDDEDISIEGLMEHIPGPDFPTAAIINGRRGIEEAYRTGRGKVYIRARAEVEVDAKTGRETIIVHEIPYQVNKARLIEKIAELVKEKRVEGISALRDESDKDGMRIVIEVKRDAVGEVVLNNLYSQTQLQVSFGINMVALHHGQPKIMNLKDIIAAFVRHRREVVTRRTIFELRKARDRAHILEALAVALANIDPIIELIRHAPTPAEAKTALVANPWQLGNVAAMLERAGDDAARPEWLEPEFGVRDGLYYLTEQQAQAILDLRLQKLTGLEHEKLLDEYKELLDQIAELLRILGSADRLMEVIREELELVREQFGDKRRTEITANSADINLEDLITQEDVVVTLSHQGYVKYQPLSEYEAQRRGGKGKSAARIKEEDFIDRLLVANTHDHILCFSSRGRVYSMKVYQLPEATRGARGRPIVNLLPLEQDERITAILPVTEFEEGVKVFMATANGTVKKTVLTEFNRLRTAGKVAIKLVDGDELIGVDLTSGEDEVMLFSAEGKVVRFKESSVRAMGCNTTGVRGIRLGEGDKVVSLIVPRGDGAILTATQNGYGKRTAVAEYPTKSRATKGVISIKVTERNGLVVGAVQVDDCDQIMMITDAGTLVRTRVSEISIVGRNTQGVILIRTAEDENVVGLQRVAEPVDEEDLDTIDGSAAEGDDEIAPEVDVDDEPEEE
Method: As a kit for measurement of DNA gyrase of Escherichia coli, a product purchased from John Innes Enterprises (Gyrase Supercoiling assay kit #K0001) was used. Relaxed DNA was modified with gyrase into supercoiled DNA, and reaction products were separated by electrophoresis depending on the sizes of the molecular weights to examine anti-gyrase effects (IC50). One unit (1 U) of DNA gyrase and […] of relaxed pBR322 DNA were added to […] of the reaction solution, and the mixture was allowed to react at 37° C. for 30 minutes in the presence of 35 mM Tris-HCl (pH 7.5), 24 mM KCl, 4 mM MgCl2, 2 mM DTT, 1.8 mM spermidine, 1 mM ATP, 6.5% (w/v) glycerol, and 0.1 mg/ml BSA. The reactions were stopped using […] of a reaction stop solution (40% sucrose, 100 mM Tris-HCl (pH 7.5), 1 mM EDTA, 0.5 mg/ml bromophenol blue).

[2] = system: Streptococcus pneumoniae R6; test: In vitro infectivity assay (MIC), Exp. Ex. 2-1; format: cell-based; conditions: Streptococcus pneumoniae, R6; Gram-positive; microdilution, MIC after 24 h; read-out: MIC S. Pneumoniae R6
VRE FN-1 = test: In vitro infectivity assay (MIC), broth dilution, Exp. Ex. 1-1; format: cell-based, enterococci; conditions: Enterococcus; VRE FN-1; Mueller-Hinton broth, 35° C., 24 hours; read-out: MIC VRE FN-1
Method: (§1) The antibacterial activities were measured based on broth dilution techniques of international standards (Clinical Laboratory Standards Institute: CLSI). The activities were shown by minimum inhibitory concentrations (MICs) determined by inoculating the above-mentioned strains at a concentration of about 10^5 […] into Mueller-Hinton broth (manufactured by Difco) containing 0.85% NaCl in 96-well microplates and incubating the plates at 35° C. for 24 hours. Measurement was carried out three times.
(§2) The antibacterial activities of the compounds of the present invention against various strains such as methicillin-resistant Staphylococcus aureus (MRSA), vancomycin intermediate-resistant Staphylococcus aureus (VISA), methicillin-sensitive Staphylococcus aureus (MSSA), and vancomycin-resistant enterococci (VRE) were examined. Of the bacteria used in MIC measurement in this test example, clinical bacteria of MRSA (OM481 strain and OM584 strain) were supplied from Okayama University Hospital (Japan). An MRSA strain N315, a vancomycin intermediate-resistant Staphylococcus aureus (VISA) strain Mu50, and a methicillin-sensitive Staphylococcus aureus (MSSA) strain FDA 209P were used as controls. Vancomycin-resistant enterococcus (VRE) strains NCTC 12201 and FN-1 were supplied from the National Institute of Infectious Disease (Japan).

VRE NCTC12201 = test: as above; format: cell-based, enterococci; conditions: Enterococcus; VRE NCTC12201; Mueller-Hinton broth, 35° C., 24 hours; read-out: MIC VRE NCTC12201
Method: as §1, §2

[3] = system: Methicillin-resistant S. aureus OM481; test: In vitro infectivity assay (MIC), Exp. Ex. 2-1; format: cell-based, Staphylococcus aureus; conditions: Staphylococcus aureus, MRSA; Gram-positive; microdilution, MIC after 24 h; read-out: MIC MRSA OM481
Outline: (§3)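 CLSI broth dilution; Mueller-Hinton + 0.85% NaCl; inoculum ~10^5 CUF/[…]; 35° C, 24 h; MIC read, n=3.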

[4] = system: Methicillin sensitive S. aureus 209P; test: In vitro infectivity assay (MIC), Exp. Ex. 2-1; format: cell-based, Staphylococcus aureus; conditions: Staphylococcus aureus, 209P / MSSA; Gram-positive; microdilution, MIC after 24 h; read-out: MIC MSSA 209P
Outline: as §3

[5] = system: Methicillin-resistant S. aureus COL; test: In vitro infectivity assay (MIC), Exp. Ex. 2-1; format: cell-based, Staphylococcus aureus; conditions: Staphylococcus aureus, MRSA; Gram-positive; microdilution, MIC after 24 h
[6] = system: Methicillin-resistant S. aureus OM584; test: In vitro infectivity assay (MIC), Exp. Ex. 2-1; format: cell-based, Staphylococcus aureus; conditions: Staphylococcus aureus, MRSA; Gram-positive; microdilution, MIC after 24 h; read-out: MIC MRSA OM584
Outline: as §3

[7] = system: Methicillin-resistant S. aureus N315; test: In vitro infectivity assay (MIC), Exp. Ex. 2-1; format: cell-based, Staphylococcus aureus; conditions: Staphylococcus aureus, MRSA; Gram-positive; microdilution, MIC after 24 h; read-out: MIC MRSA N315
Outline: as §3

O=c1c(O)c(-c2ccc(O)c(O)c2)oc2cc(O)cc(O)c12 [Quercetin, quercetin, reference compound]
IC50 [1]: 2610 nM
MIC [2]: > 128 µg/mL
MIC (VRE FN-1): > 128 µg/mL
MIC (VRE NCTC12201): > 128 µg/mL
MIC [3]: > 128 µg/mL
MIC [4]: > 128 µg/mL
MIC [5]: > 128 µg/mL
MIC [6]: > 128 µg/mL
MIC [7]: > 128 µg/mL
